Test results from article PMC7248905, “Development of UHPLC-MS/MS Method for Indirubin-3′-Oxime Derivative as a Novel FLT3 Inhibitor and Pharmacokinetic Study in Rats” (Molecules, 2020).
Like-named read-outs stand apart in the source and are kept apart here.

Assays:
MV4-11 xenograft = system: MV4-11 xenograft; parameters: method as in PMID 32272419; conditions: MV4-11 xenograft animal model, previous studies; cited from earlier work
[1] = Stability of LDD-2614 in rat plasma (freeze-thaw, long-term, short-term, autosampler); assay type: in vitro ADME; conditions: for Measured Concentration: n = 5
Procedure: Stability studies using three QC samples for freeze-thaw stability (three freeze-thaw cycles lasting 12 h each), long-term stability (sample stored at −80 °C and analyzed after 2 weeks), short-term temperature stability (samples kept at room temperature for 6 h), and post-preparation stability (12 h in autosampler) were evaluated. The measurements of the analytes were compared with those from newly prepared QC samples at the same concentrations. The accuracy (RE) of all analytes ranged from −0.6% to 8.6% for the three freeze-thaw cycles, −5.5% to −2.6% for long-term stability, −3.6% to −0.1% for short-term stability, and −1.5% to 1.5% for post-preparation stability.
Stability was evaluated with rat plasma at the four QC concentrations. Three freeze (−80 °C) and thaw (room temperature, 25 °C and stand for 2 h) cycles, long-term stability (−80 °C for 2 weeks), short-term stability (room temperature for 6 h), and post-extraction stability (12 h in the autosampler at 4 °C) were tested. The concentrations of the prepared stability samples were compared to the QC samples prepared on the day of analysis. The stability samples were considered stable if recovered within 15% compared to the QC sample concentration.

MV4-11 cells = system: MV4-11 cells; parameters: method as in PMID 32272419; conditions: AML line of MV4-11 cells, previous studies; cited from earlier work
FLT3 = system: FLT3; parameters: method as in PMID 32272419; conditions: in vitro assays, previous studies; cited from earlier work
[2] = Pharmacokinetic study in rats after intravenous and oral administration; assay type: in vivo, Sprague Dawley rats; parameters: AUC/Dose: unit not given here; conditions: rat; for AUC(0-t) / clearance / MRT / half-life / Vd / Cmax / bioavailability: male, Sprague Dawley, plasma; for clearance: read-out: CL (time averaged total body clearance); for MRT: read-out: MRT (mean residence time) (converted); for Vd: read-out: Vd,ss (apparent volume of distribution at steady state); for Cmax: read-out: Cmax (maximum plasma concentration)
From the text: The validated LC-MS/MS method was successfully implemented to quantify LDD-2614 in Sprague Dawley rat plasma to perform a pharmacokinetic study on LDD-2614 in rats after oral and intravenous administration.
Male Sprague Dawley rats (7–8 weeks, 230–250 g) were supplied from Samtaco (Osan, Korea) and were housed in cages before the experiments. All animal experiments were approved by the Dankook University’s Institutional Animal Care and Use Committee (approval no. DKU-19-029). All rats were kept in a light-controlled room maintained at a temperature of 23 ± 2 °C with 12 h light and dark cycles and a relative humidity of 50% ± 10%. The rats were given ad libitum access to standard food and water and acclimated to the environment for 7 days prior to the experiment.
The rats were fasted for at least 12 h prior to the start of the experiments and freely supplied water. On the morning of the test, the rats were anaesthetized with a mixture of alfaxan and rompun (75:25, v/v). For oral administration studies, the carotid artery was cannulated using a polyethylene tube (PE 60, 0.76 mm i.d., 1.22 mm o.d., Becton Dickinson, Franklin Lakes, NJ, USA) for efficient blood sampling. For intravenous administration studies, the carotid artery and jugular veins were cannulated for blood sampling and drug administration, respectively. Each cannula was exteriorized to the dorsal side of the neck. Then, each rat was individually housed in a rat metabolism cage and allowed to move freely. A recovery time of 3–4 h from anesthesia was allowed before drug administration. The rats were randomly divided into six groups as follows: the first three groups were orally administered LDD-2614 (4 mL/kg dissolved in distilled water) using a gastric gavage tube at doses of 1, 5, and 20 mg/kg, and the remaining three groups were intravenously injected over 1 min with LDD-2614 (4 mL/kg dissolved in distilled water) at doses of 1, 5, and 20 mg/kg. Samples of approximately 0.2 mL of blood were immediately collected via the carotid artery at 0 (before administration), 5, 15, 30, 60, 90, 120, 180, 240, 360, 480, and 1440 min after oral and intravenous administration. For intravenous administration, a sampling time of 1 min after administration was also added, and the remaining times were the same. The blood samples were immediately centrifuged at 12,000 rpm for 5 min. Each plasma sample was transferred into a new microtube and stored at −80 °C until used for LC–MS/MS analysis.
All data are expressed as mean ± standard deviation. The pharmacokinetic parameters were calculated using Phoenix WinNonlin 2.1 (Pharmasight, Mountain View, CA, USA). A noncompartmental model was used.

[3] = extracted rat plasma, autosampler 4 °C 12 h, nominal 0.3 ng/mL
[4] = extracted rat plasma, autosampler 4 °C 12 h, nominal 150 ng/mL
[5] = extracted rat plasma, autosampler 4 °C 12 h, nominal 400 ng/mL
[6] = rat plasma, long-term −80 °C 2 weeks, nominal 0.3 ng/mL
[7] = rat plasma, long-term −80 °C 2 weeks, nominal 150 ng/mL
[8] = rat plasma, long-term −80 °C 2 weeks, nominal 400 ng/mL
[9] = rat plasma, short-term room temp 6 h, nominal 0.3 ng/mL
[10] = rat plasma, short-term room temp 6 h, nominal 150 ng/mL
[11] = rat plasma, short-term room temp 6 h, nominal 400 ng/mL
[12] = rat plasma, three freeze-thaw cycles, nominal 0.3 ng/mL
[13] = rat plasma, three freeze-thaw cycles, nominal 150 ng/mL
[14] = rat plasma, three freeze-thaw cycles, nominal 400 ng/mL

- Accuracy (RE) [1, 3]: −1.1%
- Measured Concentration [1, 3]: 0.30 ± 0.03 ng/mL
- Accuracy (RE) [1, 4]: −1.5%
- Measured Concentration [1, 4]: 147.8 ± 2.98 ng/mL
- Accuracy (RE) [1, 5]: 1.5%
- Measured Concentration [1, 5]: 410.2 ± 24.3 ng/mL
- degradation under the different storage and analysis conditions ([1]; rat plasma, freeze-thaw, long-term, short-term, post-preparation): no significant degradation observed
- Accuracy (RE) [1, 6]: −4.8%
- Measured Concentration [1, 6]: 0.29 ± 0.02 ng/mL
- Accuracy (RE) [1, 7]: −2.6%
- Measured Concentration [1, 7]: 146.1 ± 0.65 ng/mL
- Accuracy (RE) [1, 8]: –5.5%
- Measured Concentration [1, 8]: 378.1 ± 17.7 ng/mL
- Accuracy (RE) [1, 9]: −0.1%
- Measured Concentration [1, 9]: 0.30 ± 0.03 ng/mL
- Accuracy (RE) [1, 10]: −3.6%
- Measured Concentration [1, 10]: 144.6 ± 6.46 ng/mL
- Accuracy (RE) [1, 11]: −1.2%
- Measured Concentration [1, 11]: 395.1 ± 13.0 ng/mL
- Accuracy (RE) [1, 12]: 8.6%
- Measured Concentration [1, 12]: 0.33 ± 0.02 ng/mL
- Accuracy (RE) [1, 13]: −0.6%
- Measured Concentration [1, 13]: 149.1 ± 1.31 ng/mL
- Accuracy (RE) [1, 14]: −0.3%
- Measured Concentration [1, 14]: 398.9 ± 6.04 ng/mL
- AUC(0-t) ([2]; intravenous, 1 mg/kg, n = 7, mean ± SD): 635 ng·h/mL
- clearance ([2]; intravenous, 1 mg/kg): 30.7 ± 13.6 mL/min/kg
- MRT ([2]; intravenous, 1 mg/kg): 4.53 h
- half-life ([2]; intravenous, 1 mg/kg, read-out: T1/2 (terminal half-life)): 4.91 ± 0.542 h
- Vd ([2]; intravenous, 1 mg/kg): 9.62 ± 3.38 L/kg
- AUC(0-t) ([2]; intravenous, 5 mg/kg, n = 5, mean ± SD): 3510 ng·h/mL
- clearance ([2]; intravenous, 5 mg/kg): 20.8 ± 8.4 mL/min/kg
- MRT ([2]; intravenous, 5 mg/kg): 4.76 h
- half-life ([2]; intravenous, 5 mg/kg, read-out: T1/2 (terminal half-life)): 3.31 ± 0.575 h
- Vd ([2]; intravenous, 5 mg/kg): 6.42 ± 2.44 L/kg
- AUC(0-t) ([2]; intravenous, 20 mg/kg, n = 6, mean ± SD): 14400 ng·h/mL
- clearance ([2]; intravenous, 20 mg/kg): 23.2 ± 3.7 mL/min/kg
- MRT ([2]; intravenous, 20 mg/kg): 5.88 h
- half-life ([2]; intravenous, 20 mg/kg, read-out: T1/2 (terminal half-life)): 3.38 ± 0.778 h
- Vd ([2]; intravenous, 20 mg/kg): 8.67 ± 2.08 L/kg
- half-life ([2]; intravenous, dose range 1–20 mg/kg, terminal phase, read-out: half-life (T1/2)): 3 to 4 h
- AUC(0-t) ([2]; oral, 1 mg/kg, n = 6, mean ± SD): 73.8 ng·h/mL
- Cmax ([2]; oral, 1 mg/kg): 5.96 ± 1.77 ng/mL
- bioavailability ([2]; oral, 1 mg/kg, read-out: F (bioavailability)): 11.7%
- AUC(0-t) ([2]; oral, 5 mg/kg, n = 6, mean ± SD): 390 ng·h/mL
- Cmax ([2]; oral, 5 mg/kg): 43.7 ± 8.2 ng/mL
- bioavailability ([2]; oral, 5 mg/kg, read-out: F (bioavailability)): 11.1%
- AUC(0-t) ([2]; oral, 20 mg/kg, n = 5, mean ± SD): 1020 ng·h/mL
- Cmax ([2]; oral, 20 mg/kg): 120 ± 33.4 ng/mL
- bioavailability ([2]; oral, 20 mg/kg, read-out: F (bioavailability)): 7.1%
- bioavailability ([2]; oral, doses 1–20 mg/kg, compared with intravenous AUClast, read-out: bioavailability after oral administration): 7.1 to 11.7%
- AUC/Dose ([2]; intravenous, 1 mg/kg): 38.1 ± 18.5
- AUC/Dose ([2]; intravenous, 5 mg/kg): 42.1 ± 12.9
- AUC/Dose ([2]; intravenous, 20 mg/kg): 43.2 ± 7.5
- AUC/Dose ([2]; oral, 1 mg/kg): 4.43 ± 0.39
- AUC/Dose ([2]; oral, 5 mg/kg): 4.69 ± 3.05
- AUC/Dose ([2]; oral, 20 mg/kg): 3.05 ± 1.24
- increase in AUC ([2]; oral, 20 mg/kg versus 5 mg/kg (four-fold increase in dose)): approximately 2.5 fold
Structure (SMILES): O=C1Nc2ccc(F)cc2C1=C1Nc2ccc(F)cc2C1=NOCCN1CCNCC1 [LDD-2614]
- in vivo antitumor activity (MV4-11 xenograft): significant in vivo antitumor activity
- anti-proliferative activity (MV4-11 cells): anti-proliferative activity
- FLT3 inhibition (FLT3): FLT3 inhibition
- dose linearity of pharmacokinetics ([2]; intravenous, dose range 1–20 mg/kg): linear pharmacokinetic characteristics were observed
